In paper doi:10.1101/472670v4 (biorxiv, 2019):

Key:
[1] = target: T1, PTP1B (human recombinant, kit BML-AK822) (Homo sapiens, UniProt P18031); assay: colorimetric malachite green; type: biochemical; settings: read-out: % inhibition at 10 µM
T1 sequence (P18031 1-322 limits assumed): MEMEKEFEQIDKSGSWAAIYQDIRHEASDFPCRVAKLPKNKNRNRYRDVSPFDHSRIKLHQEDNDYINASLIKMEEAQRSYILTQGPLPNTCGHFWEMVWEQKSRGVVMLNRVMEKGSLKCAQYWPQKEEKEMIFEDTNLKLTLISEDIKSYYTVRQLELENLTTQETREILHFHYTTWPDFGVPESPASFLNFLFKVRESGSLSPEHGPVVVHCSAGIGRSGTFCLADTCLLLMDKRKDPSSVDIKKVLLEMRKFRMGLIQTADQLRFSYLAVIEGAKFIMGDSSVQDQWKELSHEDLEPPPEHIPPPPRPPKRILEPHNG

[2] = target: T1, PTP1B (human recombinant, kit BML-AK822); assay: biochemical; settings: read-out: % inhibition at 10 µM
[3] = target: T1, PTP1B (human recombinant, kit BML-AK822); assay: colorimetric malachite green; type: biochemical
[4] = target: T1, PTP1B (human recombinant, kit BML-AK822); assay: Lineweaver-Burk with slope replot; type: biochemical

COc1ccc(C(=O)N(C2=NCCS2)c2ccccc2C(F)(F)F)cc1 [II, compound II]
inhibition at 10 µM [1]: 48%

Cc1ccc(-c2csc(N(C(=O)c3ccc(Cl)cc3)c3ccc(F)cc3)n2)cc1 [compound 15]
inhibition at 10 µM [1]: 35.2%

Cc1ccc(-c2csc(N(C(=O)CCc3ccccc3)c3ccc(F)cc3)n2)cc1 [compound 16]
inhibition at 10 µM [1]: 33%

Cc1ccc(-c2csc(N(C(=O)Cc3ccccc3)c3ccc(F)cc3)n2)cc1 [compound 17]
inhibition at 10 µM [2]: 60.3%

COc1ccc(-c2csc(N(C(=O)c3ccc(Cl)cc3)c3ccc(F)cc3)n2)cc1 [compound 18]
inhibition at 10 µM [2]: 56.9% | IC50 [3]: 8.8 µM

COc1ccc(-c2csc(N(C(=O)CCc3ccccc3)c3ccc(F)cc3)n2)cc1 [compound 19]
inhibition at 10 µM [2]: 74.7%

O=C(c1ccc(Cl)cc1)N(c1ccc(F)cc1)c1nc(-c2ccccc2)cs1 [compound 21]
inhibition at 10 µM [1]: 37.2%

O=C(CCc1ccccc1)N(c1ccc(F)cc1)c1nc(-c2ccccc2)cs1 [compound 22]
inhibition at 10 µM [2]: 69%

COc1ccc(CCN(C(=O)CCc2ccccc2)c2nc(-c3ccc(OC)cc3)cs2)cc1 [compound 37]
inhibition at 10 µM [2]: 69.9% | IC50 [3]: 6.9 µM

COc1ccc(CCN(C(=O)Cc2ccccc2)c2nc(-c3ccc(OC)cc3)cs2)cc1 [compound 38]
inhibition at 10 µM [2]: 76.6% | Ki [4]: 8.59 µM | IC50 [3]: 5.8 µM
